Data published in patent US20250353852A1, “COMPOUNDS AND COMPOSITIONS THAT INHIBIT PIKFYVE” (Kineta, Inc., priority 2021, published 2025).
pIC50: −log10 of the molar value.

Biological target: full-length human PIKFYVE (Homo sapiens (Human), UniProt Q9Y2I7, L932S/Q1183K/Q995L/S1033A/S696N/T998S)
Assay: PIKfyve biochemical assay (ADP-Glo Kinase assay, Carna Biosciences)
Details: class symbols
Excerpt: PIKfyve Biochemical Assay. The biochemical […] inhibition assays were run by Carna Biosciences according to proprietary methodology based on the Promega […] Kinase assay. […] NP_055855.2] was expressed as N-terminal GST-fusion protein (265 kDa) using baculovirus expression system. GST-PIKFYVE was purified by using glutathione sepharose chromatography and used in an ADP-GloTM Kinase assay (Promega). Reactions were set up by adding the test compound solution, substrate solution, ATP solution and kinase solution, each at 4× final concentrations. Reactions were prepared with assay buffer (50 mM MOPS, 1 mM DTT, pH7.2), mixed, and incubated in black 384 well polystyrene plates for 1 hour at room temperature. ADP-Glo^TM reagent was then added for 40 minutes, followed by kinase detection reagent for an additional 40 minutes. The kinase activity was evaluated by detecting relative light units on a luminescence plate reader. […] IC50 values were calculated from concentration vs % inhibition curves by fitting to a four-parameter logistic curve. […] The biochemical […] inhibition assays were run by Carna Biosciences according to proprietary methodology based on the Promega ADP-GloTM Kinase assay. […] GST-PIKFYVE was purified by using glutathione sepharose chromatography and used in an ADP-GIoTM Kinase assay (Promega). Reactions were set up by adding the test compound solution, substrate solution, ATP solution and kinase solution, each at 4× final concentrations. Reactions were prepared with assay buffer (50 mM MOPS, 1 mM DTT, pH7.2), mixed, and incubated in black 384 well polystyrene plates for 1 hour at room temperature. ADP-GIoTM reagent was then added for 40 minutes, followed by kinase detection reagent for an additional 40 minutes. The kinase activity was evaluated by detecting relative light units on a luminescence plate reader. […] IC50 values were calculated from concentration vs % inhibition curves by fitting to a four-parameter logistic curve. […] The same compounds were also tested in both FAB1 and PIKFYVE TDP-43 yeast models.

full-length human PIKFYVE, sequence (Q9Y2I7 whole entry S696N/L932S/Q995L/T998S/S1033A/Q1183K): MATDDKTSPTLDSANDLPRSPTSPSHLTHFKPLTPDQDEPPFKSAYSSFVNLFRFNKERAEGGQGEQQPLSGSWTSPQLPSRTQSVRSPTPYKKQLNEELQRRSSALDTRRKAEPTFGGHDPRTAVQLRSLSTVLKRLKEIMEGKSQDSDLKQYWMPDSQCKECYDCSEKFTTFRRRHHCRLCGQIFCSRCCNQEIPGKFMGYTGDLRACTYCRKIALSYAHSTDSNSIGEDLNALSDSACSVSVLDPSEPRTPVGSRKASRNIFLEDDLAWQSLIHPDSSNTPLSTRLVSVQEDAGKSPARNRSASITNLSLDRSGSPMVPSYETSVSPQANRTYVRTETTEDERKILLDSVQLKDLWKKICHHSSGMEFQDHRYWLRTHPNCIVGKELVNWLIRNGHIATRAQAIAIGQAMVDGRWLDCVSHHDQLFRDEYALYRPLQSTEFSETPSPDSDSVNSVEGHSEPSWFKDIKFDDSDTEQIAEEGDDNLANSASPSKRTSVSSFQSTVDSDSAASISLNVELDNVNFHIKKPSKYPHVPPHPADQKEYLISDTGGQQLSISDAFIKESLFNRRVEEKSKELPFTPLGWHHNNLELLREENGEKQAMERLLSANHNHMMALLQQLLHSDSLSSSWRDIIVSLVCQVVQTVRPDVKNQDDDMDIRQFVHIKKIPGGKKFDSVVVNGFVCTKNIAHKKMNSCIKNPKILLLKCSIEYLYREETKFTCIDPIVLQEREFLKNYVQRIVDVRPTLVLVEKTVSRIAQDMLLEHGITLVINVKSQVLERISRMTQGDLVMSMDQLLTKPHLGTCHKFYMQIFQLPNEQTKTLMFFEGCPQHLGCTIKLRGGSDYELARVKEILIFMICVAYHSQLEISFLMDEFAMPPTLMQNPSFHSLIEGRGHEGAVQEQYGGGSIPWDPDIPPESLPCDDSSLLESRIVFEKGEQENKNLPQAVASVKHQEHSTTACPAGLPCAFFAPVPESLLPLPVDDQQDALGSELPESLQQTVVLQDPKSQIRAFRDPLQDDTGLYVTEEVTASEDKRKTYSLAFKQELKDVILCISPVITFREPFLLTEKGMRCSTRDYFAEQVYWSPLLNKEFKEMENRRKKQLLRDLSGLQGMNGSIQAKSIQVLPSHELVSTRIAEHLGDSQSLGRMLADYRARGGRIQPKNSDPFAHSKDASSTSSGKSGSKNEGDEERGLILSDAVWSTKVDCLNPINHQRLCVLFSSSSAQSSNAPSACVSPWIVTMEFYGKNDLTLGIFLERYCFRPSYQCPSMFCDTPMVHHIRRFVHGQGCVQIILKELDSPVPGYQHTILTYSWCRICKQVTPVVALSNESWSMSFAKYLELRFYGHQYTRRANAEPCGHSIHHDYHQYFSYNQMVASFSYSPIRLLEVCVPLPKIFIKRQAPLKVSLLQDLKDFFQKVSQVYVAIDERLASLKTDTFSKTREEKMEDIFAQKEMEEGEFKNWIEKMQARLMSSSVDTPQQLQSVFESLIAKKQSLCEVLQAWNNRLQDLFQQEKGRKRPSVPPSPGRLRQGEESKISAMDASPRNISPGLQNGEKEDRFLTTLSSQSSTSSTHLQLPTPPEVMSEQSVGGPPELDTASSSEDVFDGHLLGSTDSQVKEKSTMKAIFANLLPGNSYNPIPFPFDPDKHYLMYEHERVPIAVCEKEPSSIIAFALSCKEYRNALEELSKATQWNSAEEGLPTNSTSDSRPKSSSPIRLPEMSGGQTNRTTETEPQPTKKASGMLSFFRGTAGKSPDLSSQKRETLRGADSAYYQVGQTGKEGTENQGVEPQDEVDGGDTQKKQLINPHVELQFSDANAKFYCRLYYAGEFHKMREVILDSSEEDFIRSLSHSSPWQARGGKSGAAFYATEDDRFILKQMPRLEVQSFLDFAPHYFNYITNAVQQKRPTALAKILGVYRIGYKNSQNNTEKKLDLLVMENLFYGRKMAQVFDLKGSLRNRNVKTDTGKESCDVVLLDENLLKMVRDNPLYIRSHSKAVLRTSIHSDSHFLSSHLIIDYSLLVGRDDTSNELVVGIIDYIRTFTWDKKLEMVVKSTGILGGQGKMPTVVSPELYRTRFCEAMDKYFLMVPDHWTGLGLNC

Question: With `c1ccc(Cc2ncccc2-c2cc(N3CCOCC3)n3nc(-c4ccncc4)cc3n2)cc1` [Compound 39, 4-(5-(2-benzylpyridin-3-yl)-2-(pyridin-4-yl)pyrazolo[1,5-a]pyrimidin-7-yl)morpholine] as the compound, how does the pIC50 read?
Answer: 5.00 to 6.00

Question: With `c1ccc(Cc2cccnc2-c2cc(N3CCOCC3)n3nc(-c4ccncc4)cc3n2)cc1` [Compound 40, 4-(5-(3-benzylpyridin-2-yl)-2-(pyridin-4-yl)pyrazolo[1,5-a]pyrimidin-7-yl)morpholine] as the compound, how does the pIC50 read?
Answer: 5.00 to 6.00

Question: `c1ccc(Oc2cccnc2-c2cc(N3CCOCC3)n3nc(-c4ccncc4)cc3n2)cc1` [Compound 41, 4-(5-(3-phenoxypyridin-2-yl)-2-(pyridin-4-yl)pyrazolo[1,5-a]pyrimidin-7-yl)morpholine] was tested. Which pIC50 did it give?
Answer: 6.00 to 7.00

Question: With `c1ccc(Oc2ncccc2-c2cc(N3CCOCC3)n3nc(-c4ccncc4)cc3n2)cc1` [Compound 42, 4-(5-(2-phenoxypyridin-3-yl)-2-(pyridin-4-yl)pyrazolo[1,5-a]pyrimidin-7-yl)morpholine] as the compound, how does the pIC50 read?
Answer: 6.00 to 7.00

Question: How did the pIC50 turn out when `Oc1cc(-c2cncnc2)nn1-c1cc(N2CCOCC2)n2nc(-c3ccncc3)cc2n1` [Compound 44, 1-(7-morpholino-2-(pyridin-4-yl)pyrazolo[1,5-a]pyrimidin-5-yl)-3-(pyrimidin-5-yl)-1H-pyrazol-5-ol] was run?
Answer: 6.00 to 7.00

Question: How did the pIC50 turn out when `Cc1ccccc1-c1cc(O)n(-c2cc(N3CCOCC3)n3nc(-c4ccncc4)cc3n2)n1` [Compound 46, 1-(7-morpholino-2-(pyridin-4-yl)pyrazolo[1,5-a]pyrimidin-5-yl)-3-(o-tolyl)-1H-pyrazol-5-ol] was run?
Answer: 7.00 to 8.00

Question: `Oc1cc(C2CCCCC2)nn1-c1cc(N2CCOCC2)n2nc(-c3ccncc3)cc2n1` [Compound 49, 3-cyclohexyl-1-(7-morpholino-2-(pyridin-4-yl)pyrazolo[1,5-a]pyrimidin-5-yl)-1H-pyrazol-5-ol] was tested. Which pIC50 did it give?
Answer: 6.00 to 7.00

Question: `Oc1cc(C2CCOCC2)nn1-c1cc(N2CCOCC2)n2nc(-c3ccncc3)cc2n1` [Compound 50, 1-(7-morpholino-2-(pyridin-4-yl)pyrazolo[1,5-a]pyrimidin-5-yl)-3-(tetrahydro-2H-pyran-4-yl)-1H-pyrazol-5-ol] was tested. Which pIC50 did it give?
Answer: 6.00 to 7.00

Question: `Oc1cc(-c2ccccc2F)nn1-c1cc(N2CCOCC2)n2nc(-c3ccncc3)cc2n1` [Compound 53, 3-(2-fluorophenyl)-1-(7-morpholino-2-(pyridin-4-yl)pyrazolo[1,5-a]pyrimidin-5-yl)-1H-pyrazol-5-ol] was tested. Which pIC50 did it give?
Answer: 7.00 to 8.00

Question: With `CC(C)c1cc(O)n(-c2cc(N3CCOCC3)n3nc(-c4ccncc4)cc3n2)n1` [Compound 54, 3-isopropyl-1-(7-morpholino-2-(pyridin-4-yl)pyrazolo[1,5-a]pyrimidin-5-yl)-1H-pyrazol-5-ol] as the compound, how does the pIC50 read?
Answer: 6.00 to 7.00

Question: `Oc1c2c(nn1-c1cc(N3CCOCC3)n3nc(-c4ccncc4)cc3n1)CCCC2` [Compound 55, 2-(7-morpholino-2-(pyridin-4-yl)pyrazolo[1,5-a]pyrimidin-5-yl)-4,5,6,7-tetrahydro-2H-indazol-3-ol] was tested. Which pIC50 did it give?
Answer: 6.00 to 7.00

Question: `CN1CCC(c2cc(O)n(-c3cc(N4CCOCC4)n4nc(-c5ccncc5)cc4n3)n2)CC1` [Compound 56, 3-(1-methylpiperidin-4-yl)-1-(7-morpholino-2-(pyridin-4-yl)pyrazolo[1,5-a]pyrimidin-5-yl)-1H-pyrazol-5-ol] was tested. Which pIC50 did it give?
Answer: 6.00 to 7.00

Question: `Oc1cc(-c2cc(N3CCOCC3)n3nc(-c4ccncc4)cc3n2)nn1-c1ccccc1` [Compound 57, 3-(7-morpholino-2-(pyridin-4-yl)pyrazolo[1,5-a]pyrimidin-5-yl)-1-phenyl-1H-pyrazol-5-ol] was tested. Which pIC50 did it give?
Answer: 7.00 to 8.00

Question: How did the pIC50 turn out when `Oc1cc(-c2cc(N3CCOCC3)n3nc(-c4ccncc4)cc3n2)nn1-c1cccnc1` [Compound 58, 3-(7-morpholino-2-(pyridin-4-yl)pyrazolo[1,5-a]pyrimidin-5-yl)-1-(pyridin-3-yl)-1H-pyrazol-5-ol] was run?
Answer: 7.00 to 8.00

Question: With `Oc1cc(-c2cc(N3CCOCC3)n3nc(-c4ccncc4)cc3n2)nn1-c1cccc(F)c1` [Compound 59, 1-(3-fluorophenyl)-3-(7-morpholino-2-(pyridin-4-yl)pyrazolo[1,5-a]pyrimidin-5-yl)-1H-pyrazol-5-ol] as the compound, how does the pIC50 read?
Answer: 7.00 to 8.00

Question: With `Fc1cncc(-c2ccn(-c3cc(N4CCOCC4)n4nc(-c5ccncc5)cc4n3)n2)c1` [Compound 60, 4-(5-(3-(5-fluoropyridin-3-yl)-1H-pyrazol-1-yl)-2-(pyridin-4-yl)pyrazolo[1,5-a]pyrimidin-7-yl)morpholine] as the compound, how does the pIC50 read?
Answer: 6.00 to 7.00

Question: How did the pIC50 turn out when `c1cc(-c2cc3nc(-n4ccc(C5CCCOC5)n4)cc(N4CCOCC4)n3n2)ccn1` (centres unmarked) [Compound 61, 4-(2-(pyridin-4-yl)-5-(3-(tetrahydro-2H-pyran-3-yl)-1H-pyrazol-1-yl)pyrazolo[1,5-a]pyrimidin-7-yl)morpholine] was run?
Answer: 5.00 to 6.00

Question: `c1cc(-c2cc3nc(-n4ccc(C5CCNCC5)n4)cc(N4CCOCC4)n3n2)ccn1` [Compound 62, 4-(5-(3-(piperidin-4-yl)-1H-pyrazol-1-yl)-2-(pyridin-4-yl)pyrazolo[1,5-a]pyrimidin-7-yl)morpholine] was tested. Which pIC50 did it give?
Answer: 6.00 to 7.00

Question: With `CN1CCC(c2ccn(-c3cc(N4CCOCC4)n4nc(-c5ccncc5)cc4n3)n2)CC1` [Compound 63, 4-(5-(3-(1-methylpiperidin-4-yl)-1H-pyrazol-1-yl)-2-(pyridin-4-yl)pyrazolo[1,5-a]pyrimidin-7-yl)morpholine] as the compound, how does the pIC50 read?
Answer: 6.00 to 7.00

Question: How did the pIC50 turn out when `c1cc(-c2cc3nc(-n4ccc(C5CCCNC5)n4)cc(N4CCOCC4)n3n2)ccn1` (centres unmarked) [Compound 67, 4-(5-(3-(piperidin-3-yl)-1H-pyrazol-1-yl)-2-(pyridin-4-yl)pyrazolo[1,5-a]pyrimidin-7-yl)morpholine] was run?
Answer: 6.00 to 7.00

Question: With `CN1CCCC(c2ccn(-c3cc(N4CCOCC4)n4nc(-c5ccncc5)cc4n3)n2)C1` (centres unmarked) [Compound 68, 4-(5-(3-(1-methylpiperidin-3-yl)-1H-pyrazol-1-yl)-2-(pyridin-4-yl)pyrazolo[1,5-a]pyrimidin-7-yl)morpholine] as the compound, how does the pIC50 read?
Answer: 6.00 to 7.00

Question: With `c1cc(-c2cc3nc(-n4ccc(-c5ccnnc5)n4)cc(N4CCOCC4)n3n2)ccn1` [Compound 69, 4-(5-(3-(pyridazin-4-yl)-1H-pyrazol-1-yl)-2-(pyridin-4-yl)pyrazolo[1,5-a]pyrimidin-7-yl)morpholine] as the compound, how does the pIC50 read?
Answer: 6.00 to 7.00

Question: With `c1ccc(-c2ccn(-c3cc(N4CCOCC4)n4nc(-c5ccncc5)cc4n3)n2)nc1` [Compound 70, 4-(5-(3-(pyridin-2-yl)-1H-pyrazol-1-yl)-2-(pyridin-4-yl)pyrazolo[1,5-a]pyrimidin-7-yl)morpholine] as the compound, how does the pIC50 read?
Answer: 6.00 to 7.00

Question: With `c1cc(-c2cc3nc(-n4ccc(-c5cncnc5)n4)cc(N4CCOCC4)n3n2)ccn1` [Compound 72, 4-(2-(pyridin-4-yl)-5-(3-(pyrimidin-5-yl)-1H-pyrazol-1-yl)pyrazolo[1,5-a]pyrimidin-7-yl)morpholine] as the compound, how does the pIC50 read?
Answer: 6.00 to 7.00

Question: With `c1cc(-c2cc3nc(-n4ccc(C5CNC5)n4)cc(N4CCOCC4)n3n2)ccn1` [Compound 73, 4-(5-(3-(Azetidin-3-yl)-1H-pyrazol-1-yl)-2-(pyridin-4-yl)pyrazolo[1,5-a]pyrimidin-7-yl)morpholine] as the compound, how does the pIC50 read?
Answer: 6.00 to 7.00

Question: `FC1(F)CNCC(c2ccn(-c3cc(N4CCOCC4)n4nc(-c5ccncc5)cc4n3)n2)C1` (centres unmarked) [Compound 74, 4-(5-(3-(5,5-difluoropiperidin-3-yl)-1H-pyrazol-1-yl)-2-(pyridin-4-yl)pyrazolo[1,5-a]pyrimidin-7-yl)morpholine] was tested. Which pIC50 did it give?
Answer: 5.00 to 6.00

Question: `OCCc1ccn(-c2cc(N3CCOCC3)n3nc(-c4ccncc4)cc3n2)n1` [Compound 80, 2-(1-(7-morpholino-2-(pyridin-4-yl)pyrazolo[1,5-a]pyrimidin-5-yl)-1H-pyrazol-3-yl)ethan-1-ol] was tested. Which pIC50 did it give?
Answer: 6.00 to 7.00

Question: How did the pIC50 turn out when `COCCc1ccn(-c2cc(N3CCOCC3)n3nc(-c4ccncc4)cc3n2)n1` [Compound 81, 4-(5-(3-(2-methoxyethyl)-1H-pyrazol-1-yl)-2-(pyridin-4-yl)pyrazolo[1,5-a]pyrimidin-7-yl)morpholine] was run?
Answer: 6.00 to 7.00

Question: How did the pIC50 turn out when `OCC1(c2ccn(-c3cc(N4CCOCC4)n4nc(-c5ccncc5)cc4n3)n2)CC1` [Compound 82, (1-(1-(7-morpholino-2-(pyridin-4-yl)pyrazolo[1,5-a]pyrimidin-5-yl)-1H-pyrazol-3-yl)cyclopropyl)methanol] was run?
Answer: 6.00 to 7.00

Question: With `COCC1(c2ccn(-c3cc(N4CCOCC4)n4nc(-c5ccncc5)cc4n3)n2)CC1` [Compound 83, 4-(5-(3-(1-(methoxymethyl)cyclopropyl)-1H-pyrazol-1-yl)-2-(pyridin-4-yl)pyrazolo[1,5-a]pyrimidin-7-yl)morpholine] as the compound, how does the pIC50 read?
Answer: 6.00 to 7.00

Question: How did the pIC50 turn out when `CC1(CCc2ccn(-c3cc(N4CCOCC4)n4nc(-c5ccncc5)cc4n3)n2)CC1` [Compound 84, 4-(5-(3-(2-(1-methylcyclopropyl)ethyl)-1H-pyrazol-1-yl)-2-(pyridin-4-yl)pyrazolo[1,5-a]pyrimidin-7-yl)morpholine] was run?
Answer: 5.00 to 6.00

Question: How did the pIC50 turn out when `c1cc(-c2cc3nc(-n4cc5c(n4)CCCC5)cc(N4CCOCC4)n3n2)ccn1` [Compound 85, 4-(2-(pyridin-4-yl)-5-(4,5,6,7-tetrahydro-2H-indazol-2-yl)pyrazolo[1,5-a]pyrimidin-7-yl)morpholine] was run?
Answer: 6.00 to 7.00
